pEC50, pIC50: −log10 of the molar value.
Assays:
CEM cells = assay: CEM cell assay, intrinsic toxicity of test compound without virus (MTT); format: cell-based; conditions: 7 days, concentration reducing cellular viability by 50%
Description: (§1) The effectiveness of the compounds tested in Part A was also determined in a CEM cell assay. The HIV inhibition assay method of acutely infected cells is an automated tetrazolium based colorimetric assay essentially that reported by Pauwles et al, J. Virol. Methods 20, 309–321 (1988). Assays were performed in 96-well tissue culture plates. CEM cells, a CD4 cell line, were grown in RPMI-1640 medium (Gibco) supplemented with a 10% fetal calf serum and were then treated with polybrene ([…]). An 80 μL volume of medium containing 1×10^4 cells was dispensed into each well of the tissue culture plate. To each well was added a 100 μL volume of test compound dissolved in tissue culture medium (or medium without test compound as a control) to achieve the desired final concentration and the cells were incubated at 37° C. for 1 hour. A frozen culture of HIV-1 was diluted in culture medium to a concentration of 5×10^4 TCID50 per mL (TCID50=the dose of virus that infects 50% of cells in tissue culture), and a 20 μL volume of the virus sample (containing 1000 TCID50 of virus) was added to wells containing test compound and to wells containing only medium (infected control cells). Several wells received culture medium without virus (uninfected control cells). Likewise, the intrinsic toxicity of the test compound was determined by adding medium without virus to several wells containing test compound. In summary, the tissue culture plates contained the following experiments:
In experiments 2 and 4, the final concentrations of test compounds were 1, 10, 100 and 500 μg/mL. Either azidothymidine (AZT) or dideoxyinosine (ddI) was included as a positive drug control. […] DMSO was added to all control wells at an appropriate concentration.
Following the addition of virus, cells were incubated at 37° C. in a humidified, 5% CO2 atmosphere for 7 days. Test compounds could be added on days 0, 2 and 5 if desired. On day 7, post-infection, the cells in each well were resuspended and a 100 μL sample of each cell suspension was removed for assay. A 20μL volume of a 5 mg/mL solution of 3-(4,5-dimethylthiazol-2-yl)-2,5-diphenyltetrazolium bromide (MTT) was added to each 100 μL cell suspension, and the cells were incubated for 4 hours at […] in a 5% CO2 environment. […] To each sample was added […] of 10% sodium dodecylsulfate in 0.01 N HCl to lyse the cells, and samples were incubated overnight. The absorbance at 590 nm was determined for each sample using a Molecular Devices microplate reader. Absorbance values for each set of wells is compared to assess viral control infection, uninfected control cell response as well as test compound by cytotoxicity and antiviral efficacy.
The calculated EC50 (effective concentration 50%, i.e., the concentration at which the inhibitor compound reduces cytopathicity by 50%) and TD50 (toxic dose 50%, i.e., the concentration at which the inhibitor compound reduces cellular viability by 50%) values for these compounds are also shown in Table 1.

HIV protease = biological target: T1, HIV protease (Human immunodeficiency virus type 1 group M subtype B, UniProt P04585); assay: Enzyme assay (HIV protease, fluorogenic substrate 2-aminobenzoyl-Ile-Nle-Phe(p-NO2)-Gln-ArgNH2); format: biochemical; conditions: HIV protease 12.3 nanomolar, substrate 80 μM, pH 6.4; read-out: Enzyme Inhibition (IC50)
T1 construct: HIV protease is diluted in the assay buffer to a final enzyme concentration of 12.3 nanomolar, based on a molecular weight of 10,780
Description: The calculated IC50 (inhibiting concentration 50%, i.e., the concentrations at which the inhibitor compound reduces enzyme activity by 50%) values are shown in Table 1. The enzyme method is described below. The substrate is 2-aminobenzoyl-Ile-Nle-Phe(p-NO2)-Gln-ArgNH2. The positive control is MVT-101 (Miller, M. et al, Science, 246, 1149 (1989)] The assay conditions are as follows:
Assay buffer: 20 mM sodium phosphate, pH 6.4
• 20% glycerol • 1 mM EDTA • 1 mM DTT • 0.1% CHAPS
The above described substrate is dissolved in DMSO, then diluted 10 fold in assay buffer. Final substrate concentration in the assay is 80 μM.
HIV protease is diluted in the assay buffer to a final enzyme concentration of 12.3 nanomolar, based on a molecular weight of 10,780.
The final concentration of DMSO is 14% and the final concentration of glycerol is 18%. The test compound is dissolved in DMSO and diluted in DMSO to 10× the test concentration; 10 μL of the enzyme preparation is added, the materials mixed and then the mixture is incubated at ambient temperature for 15 minutes. The enzyme reaction is initiated by the addition of 40 μL of substrate. The increase in fluorescence is monitored at 4 time points (0, 8, 16 and 24 minutes) at ambient temperature. Each assay is carried out in duplicate wells.

HIV-1 = assay: CEM cell assay, HIV inhibition in acutely infected cells (MTT); format: cell-based; conditions: Human immunodeficiency virus 1, CCRF-CEM, 168 h; CEM cells acutely infected with HIV-1, 7 days; concentration reducing cytopathicity by 50%; read-out: Antiviral Activity in Cell Culture (EC50)
Description: as §1, with “A frozen culture of HIV-1 was diluted in culture medium to a concentration of 5×10^4 TCID50 per mL (TCID50=the dose of virus that infects 50% of cells in tissue culture), and a 20 μL volume of the virus sample (containing 1000 TCID50 of virus) was added to wells containing test compound and to wells containing only medium (infected control cells). Several wells received culture medium without virus (uninfected control cells).” left out, “In summary, the tissue culture plates contained the following experiments:” left out
Following the addition of virus, cells were incubated at 37° C. in a humidified, 5% CO2 atmosphere for 7 days. […] The absorbance at 590 nm was determined for each sample using a Molecular Devices microplate reader. Absorbance values for each set of wells is compared to assess viral control infection, uninfected control cell response as well as test compound by cytotoxicity and antiviral efficacy. […]

Row | Compound | Cell Toxicity (TD50) (CEM cells) | pIC50 (HIV protease) | pEC50 (HIV-1)
1 | CC(C)(C)NC(=O)[C@@H]1C[C@@H]2CCCC[C@@H]2CN1C[C@@H](O)[C@H](Cc1ccccc1)NC(=O)C[C@H](NC(=O)c1ccc2ccccc2n1)C(N)=O | 5,000 nM |  | 
2 | C[C@@H](C(=O)N[C@@H](Cc1ccccc1)[C@H](O)CN1C[C@H]2CCCC[C@H]2C[C@H]1C(=O)NC(C)(C)C)C(C)(C)C(N)=O | 59,000 nM | 8.05 | 7.01
3 | C[C@@H](C(=O)N[C@@H](Cc1ccccc1)[C@H](O)CN1C[C@H]2CCCC[C@H]2C[C@H]1C(=O)NC(C)(C)C)C(C)(C)C(=O)O | 50,000 nM |  | 
4 | COc1ccc(COC(=O)NC[C@@H](C)C(=O)N[C@@H](Cc2ccccc2)[C@H](O)CN2C[C@H]3CCCC[C@H]3C[C@H]2C(=O)NC(C)(C)C)cc1 | 2,000 nM |  | 
5 | C[C@H](CS(C)(=O)=O)C(=O)N[C@@H](Cc1ccccc1)[C@H](O)CN1C[C@H]2CCCC[C@H]2C[C@H]1C(=O)NC(C)(C)C | 58,000 nM |  | 
